The text below walks through data of paper PMC8101618, “Comparable Initial Engagement of Intracellular Signaling Pathways by Parathyroid Hormone Receptor Ligands Teriparatide, Abaloparatide, and Long‐Acting PTH” (JBMR Plus, 2021).

Assay [1] has as its target T1, PTH1R (endogenous, Ocy454 cells) (Mus musculus, UniProt P41593).
T1 construct: effects of distinct PTH1R ligands on endogenous receptors in Ocy454 cells; endogenous in cells; host or cells: Ocy454 cells (murine osteocyte-like line, subclone 6-9)
T1 sequence (P41593 27-591): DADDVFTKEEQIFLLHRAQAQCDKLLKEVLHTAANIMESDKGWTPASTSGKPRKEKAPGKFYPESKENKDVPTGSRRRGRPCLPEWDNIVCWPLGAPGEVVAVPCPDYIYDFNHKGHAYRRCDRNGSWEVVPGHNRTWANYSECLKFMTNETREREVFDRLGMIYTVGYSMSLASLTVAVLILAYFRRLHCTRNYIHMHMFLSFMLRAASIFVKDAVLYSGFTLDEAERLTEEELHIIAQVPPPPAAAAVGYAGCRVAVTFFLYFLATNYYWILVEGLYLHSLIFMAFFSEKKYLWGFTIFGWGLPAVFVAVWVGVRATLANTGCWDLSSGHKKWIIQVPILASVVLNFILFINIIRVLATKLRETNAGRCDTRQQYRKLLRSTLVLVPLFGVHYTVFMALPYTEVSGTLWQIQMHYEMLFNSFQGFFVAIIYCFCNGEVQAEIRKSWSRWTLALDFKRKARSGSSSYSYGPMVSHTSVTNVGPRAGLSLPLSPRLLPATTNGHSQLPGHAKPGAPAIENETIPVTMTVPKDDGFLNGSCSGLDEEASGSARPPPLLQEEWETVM
Nature of the assay: intracellular cAMP in Ocy454 cells. It counts as cell-based, murine. The note with it: IBMX (2mM), 30 min, room temperature, radioimmunoassay, repeated three times, Fig 3A, read-out: cAMP generation EC50. As for the experimental part:
Confluent Ocy454 cells in 96‐well plates were treated with a abaloparatide or a PTH analog at varying concentrations in a buffer of Hanks balanced salts solution (HBSS) containing 0.1% BSA and 3‐isobutyl‐1‐methylxanthine (IBMX) (2mM) for 30 min at room temperature. The buffer was then removed and the cells were lysed by placing the plate on a bed of powdered dry ice and adding 50 μL of 50mM HCl. After freezing and thawing, the lysates were diluted in water and then assessed for cAMP content by radioimmunoassay.
First, we assessed the effects of different PTH analogs on cAMP generation. For this, cells were treated with different concentrations of peptides in the presence of IBMX for 30 min at room temperature, followed by radioimmunoassay for cAMP.

For a further assay, the system named is hPTH1R. Nature of the assay: intracellular calcium (Fura2-AM) in HEK293/hPTH1R/glosensor (GP-2.3) cells. Particulars: 100nM; HEK293 cells stably expressing hPTH1R (GP-2.3); Fura2-AM ratiometric fluorescence 340/380 nm; 150 s after ligand addition; repeated two times. It counts as cell-based, human. As for the experimental part:
Signaling via the iCa^++ pathway was assessed in stably transfected HEK‐HEK293/hPTH1R/glosensor (GP‐2.3) cells using the calcium‐sensitive fluorophore Fura2‐AM (Invitrogen, Life Tech. Grand Island, NY, USA).^( ^32 ^) Confluent cells in a black, 96‐well plate were preloaded with Fura2‐AM (5μM) for 45 min and then unloaded in buffer for 30 min. The plate was then processed using a Perkin Elmer Envision plate reader (Perkin Elmer, Waltham, MA, USA) to monitor fluorescence emission at a wavelength (λem) of 515 nm, upon sequential excitation at wavelengths (λex) of 340 nm and 380 nm. Data were recorded at 2‐s intervals for 10 s prior to, and for 150 s after ligand addition. The data at each time point were calculated as the ratio of the fluorescence signal obtained with excitation at 340 nm to that obtained with excitation at 380 nm.
(§1) First, we assessed the ability of distinct PTH1R peptide ligands (Fig. 1A ) to induce Gαq/PKC‐dependent increases in intracellular calcium in HEK293 cells stably expressing hPTH1R (GP‐2.3 cells). For this, cells were preloaded with the calcium indicator dye Fura2‐AM, and then treated with different PTH ligands at a concentration of 100nM. Intracellular calcium fluxes were measured by ratiometric fluorescence (excitation = 340 nm and 380 nm, emission = […]) over time.
A general note: Calcium assays in cells follow changes in intracellular calcium, usually with a dye or a luminescent sensor.

The subject of assay [2] is Gαq/phospholipase signaling. The note with it: cited from earlier work. As for the experimental part:
as §1

The subject of a further assay is ratPTH1R. Briefly: internalization of TMR-labeled ligand-PTH1R complexes in GR-35 cells. It counts as cell-based, rat. Particulars: TMR-labeled ligands (TMR at Lys13), 15 min, 21°C, HEK293 ratPTH1R/glosensor GR-35 cells, epifluorescent microscopy; 100nM (methods) or 10nM (results); repeated two times. As to the method: Internalization of ligand‐PTH1R complexes was assessed by fluorescent microscopy in stably transfected HEK293/ratPTH1R/glosensor (GR‐35) cells. The cells were cultured on glass coverslips in 24‐well plates to ~75% of confluency, and then treated with a tetramethylrhodamine (TMR)‐labeled PTH analog (100nM, TMR attached to Lys13) in HBSS containing 0.1% BSA (HB buffer) for 15 min at 21°C. The cells were then rinsed thrice with HB buffer, fixed with 4% formalin for 5 min, mounted with vector‐shield containing 4,6‐diamidino‐2‐phenylindole (DAPI) on a glass microscope slide, and viewed and digitally imaged using a Nikon epifluorescent microscope (Nikon, Tokyo, Japan) equipped with a charge‐coupled device (CCD) camera configured with SPOT imaging software (SPOT Imaging, Sterling Heights, MI, USA).
Next, we asked whether PTH analogs might have different effects on PTH1R activation‐dependent internalization. For this, HEK293 cells stably expressing a rat PTH1R cDNA (GR‐35 cells) were treated with tetramethyl‐rhodamine‐labeled versions of hPTH (1‐34), PTHrP, and abaloparatide (the TMR fluorophore is attached at the K13 position of each peptide). Cells were treated for 15 min at room temperature (21°C) at peptide doses of 10nM. After excess unbound peptide was washed away, cells were examined by epifluorescent microscopy.

pEC50: −log10 of the molar value. Where no end group is shown, it is not given here. TMR = tetramethyl-rhodamine

For the molecule `CC[C@H](C)[C@H](NC(=O)[C@H](CO)NC(=O)[C@H](CCCCN)NC(=O)CNC(=O)[C@H](CCCCN)NC(=O)[C@H](CC(=O)O)NC(=O)[C@H](Cc1cnc[nH]1)NC(=O)[C@H](CC(C)C)NC(=O)[C@H](CC(C)C)NC(=O)[C@H](CCC(N)=O)NC(=O)[C@H](Cc1cnc[nH]1)NC(=O)[C@H](CCC(=O)O)NC(=O)[C@H](CO)NC(=O)[C@@H](NC(=O)[C@H](C)N)C(C)C)C(=O)N[C@@H](CCC(N)=O)C(=O)N[C@@H](CC(=O)O)C(=O)N[C@@H](CC(C)C)C(=O)N[C@@H](CCCNC(=N)N)C(=O)N[C@@H](CCCNC(=N)N)C(=O)N[C@@H](CCCNC(=N)N)C(=O)N[C@@H](CCC(=O)O)C(=O)N[C@@H](CC(C)C)C(=O)N[C@@H](CC(C)C)C(=O)N[C@@H](CCC(=O)O)C(=O)N[C@@H](CCCCN)C(=O)N[C@@H](CC(C)C)C(=O)N[C@@H](CC(C)C)C(=O)NC(C)(C)C(=O)N[C@@H](CCCCN)C(=O)N[C@@H](CC(C)C)C(=O)N[C@@H](Cc1cnc[nH]1)C(=O)N[C@H](C(=O)N[C@@H](C)C(N)=O)[C@@H](C)O` [abaloparatide], the pEC50 in assay [1] is 9.23. Consider “AVAEIQLMHQRAKWIQDARRRAFLHKLIAEIHTAEI [LA‐PTH]”, for which the pEC50 in assay [1] was 9.25.

“Trp1‐PTH (1‐34): a PTH analog defective at activating Gαq/phospholipase signaling (WVSEIQLMHNLGKHLNSMERVEWLRKKLQDVHNF; Parathyroid hormone; UniProt P01270 32-65, looked up, variant S1W)”: in the assay with hPTH1R, the intracellular calcium release result is listed as “does not stimulate intracellular calcium”. Further, the “activation of Gαq/phospholipase signaling” value in assay [2] is “defective at activating Gαq/phospholipase signaling”.

Consider “^TMRPTHc35 (1‐35): Tetramethyl‐rhodamine (TMR)‐labeled version of PTH, TMR attached to Lys13 (SVSEIQLMHNLGK(TMR)HLNSMERVEWLRKKLQDVHNFV; UniProt P01270 32-66, looked up, fragment)”, for which the ligand-PTH1R internalization result in the assay on ratPTH1R was “induced ligand‐PTH1R internalization”. Consider “^TMRPTHrP (1‐36): Tetramethyl‐rhodamine (TMR)‐labeled version of PTHrP, TMR attached to Lys13”, for which the ligand-PTH1R internalization result in the assay on ratPTH1R is listed as “induced ligand‐PTH1R internalization”.
